In patent US8415486B2, “IAP inhibitors” (TetraLogic Pharmaceuticals Corp., priority 2009, dated 2013):

Tests used:
[1] = target: T1, cIAP-1 BIR-3 (Homo sapiens, UniProt Q13490); experiment: Fluorescence polarization binding to cIAP-1 BIR-3 with labeled peptide AbuRPF-K(5-Fam)-NH2; settings: 40 nM BIR3, 5 nM labeled peptide, reported as ranges, read-out: KD (c-IAP-1 BIR3)
T1 construct: 40 nM of the respective IAP BIR3
Experimental: (§1) The binding affinities of the compounds are reported as a KD value (μM). Briefly, various concentrations of test peptides were mixed with 5 nM of the fluorescently labeled peptide (i.e., a mutated N-terminal Smac peptide—AbuRPF-K(5-Fam)-NH2) and 40 nM of the respective IAP BIR3 for 15 min at RT in […] of 0.1M Potassium Phosphate buffer, pH 7.5 containing 100 mg/ml bovine g-globulin. Following incubation, the polarization values (mP) were measured on a Victor2V (available from PerkinElmer Life Sciences) using a 485 nm excitation filter and a 520 nm emission filter. The reported binding affinities (KD values) are supplied as ranges (A=<0.1 μM, B=0.1 μM to 1 μM, C=>1 μM to 10 μM, D=>10 μM).

[2] = target: T2, XIAP BIR-3 (Homo sapiens, UniProt P98170); experiment: Fluorescence polarization binding to XIAP BIR-3 with labeled peptide AbuRPF-K(5-Fam)-NH2; settings: 40 nM BIR3, 5 nM labeled peptide, reported as ranges
T2 construct: 40 nM of the respective IAP BIR3
T2 sequence (P98170 241-356 limits assumed): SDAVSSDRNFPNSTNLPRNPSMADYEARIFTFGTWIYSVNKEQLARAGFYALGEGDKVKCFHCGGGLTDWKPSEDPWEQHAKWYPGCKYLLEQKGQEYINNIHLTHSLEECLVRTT
Experimental: as §1

[3] = tested on: ovarian cancer cell line, SK-OV-3; experiment: SK-OV-3 cell growth inhibition (MTT, 72 hrs); type: cell-based; settings: Homo sapiens, concentration giving 50% cell survival, reported as ranges
Experimental: Compounds of the invention also were tested for their ability to inhibit the growth of an ovarian cancer cell line, SK-OV-3. A known assay previously used for measuring cell growth (as described in Hansen, M. B., Nielsen, S. E., and Berg, K. (1989) J. Immunol. Methods 119, 203-210 and incorporated herein by reference in its entirety) was used. Briefly, SK-OV-3 cells are seeded in 96-well plates in McCoy's medium containing 10% fetal bovine serum albumin (5,000 per well) and incubated overnight at 37° C. The next day, test compounds are added at various concentrations (0.003-10 μM) and the plates are incubated at 37° C. for an additional 72 hrs. This incubation time was considered to be optimal for measuring inhibitory effects of the different compounds tested. 50 microliters of 5 mg/mL MTT reagent is added to each well and the plates are incubated at 37° C. for another three (3) hours. At the end of the three (3) hour incubation period, 50 microliters of DMSO is added to each well to dissolve cells and the optical density (OD) of the wells is measured with a microplate reader (Victor^2 1420, Wallac, Finland) at 535 nm. Cell survival (CS) was calculated using the following equation: CS=(OD treated well/mean OD control wells)×100%.
The CC50 (reported in the following tables), is defined as the drug concentration that results in 50% cell survival (CS), and is derived by calculating the point where the dose-response curve crosses the 50% CS point using GraphPad Prism. The reported CC50 values are supplied as ranges (A=<0.1 μM, B=0.1 μM to 1 μM, C=>1 μM to 10 μM, D=>10 μM).

T1 sequence (Q13490 253-363 limits assumed): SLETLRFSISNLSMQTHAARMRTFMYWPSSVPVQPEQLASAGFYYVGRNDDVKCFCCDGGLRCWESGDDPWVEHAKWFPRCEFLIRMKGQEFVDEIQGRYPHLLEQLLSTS

Row | SMILES | Kd [1] | Kd [2] | CC50 [3]
1 | CCN1C[C@H](Oc2ccc(F)c(F)c2)[C@@H]2[C@H]1CCN2C(=O)[C@@H](NC(=O)[C@H](C)NC)C(C)(C)C [Example 16, N-{1-[6-(3,4-Difluoro-phenoxy)-4-ethyl-hexahydro-pyrrolo[3,2-b]pyrrole-1-carbonyl]-2,2-dimethyl-propyl}-2-methylamino-propionamide] | < 100 nM | < 100 nM | 100 to 1000 nM
2 | CN[C@@H](C)C(=O)N[C@H](C(=O)N1CC[C@@H]2[C@H]1[C@@H](Oc1ccc(F)cc1)CN2S(C)(=O)=O)C(C)C [Example 9, N-{1-[6-(4-Fluoro-phenoxy)-4-methanesulfonyl-hexahydro-pyrrolo[3,2-b]pyrrole-1-carbonyl]-2-methyl-propyl}-2-methylamino-propionamide] | < 100 nM | < 100 nM | < 100 nM
3 | CN[C@@H](C)C(=O)N[C@H](C(=O)N1CC[C@@H]2[C@H]1[C@@H](Oc1ccc(F)c(F)c1)CN2c1ncccn1)C(C)(C)C [Example 18, N-{1-[6-(3,4-Difluoro-phenoxy)-4-pyrimidin-2-yl-hexahydro-pyrrolo[3,2-b]pyrrole-1-carbonyl]-2,2-dimethyl-propyl}-2-methylamino-propionamide] | < 100 nM | < 100 nM | < 100 nM
4 | CN[C@@H](C)C(=O)N[C@H](C(=O)N1CC[C@@H]2[C@H]1[C@@H](COc1ccc(F)c(F)c1)CN2C(C)=O)C(C)(C)C [Example 65, N-{1-[4-Acetyl-6-(3,4-difluoro-phenoxymethyl)-hexahydro-pyrrolo[3,2-b]pyrrole-1-carbonyl]-2,2-dimethyl-propyl}-2-methylamino propionamide] | < 100 nM | < 100 nM | < 100 nM
5 | CN[C@@H](C)C(=O)N[C@H](C(=O)N1CC[C@@H]2[C@H]1[C@@H](COc1ccc(F)c(F)c1)CN2C(=O)CC(C)C)C(C)(C)C [Example 71, N-{1-[6-(3,4-Difluoro-phenoxymethyl)-4-(3-methyl-butyryl)-hexahydro-pyrrolo[3,2-b]pyrrole-1-carbonyl]-2,2-dimethyl-propyl}-2-methylamino propionamide] | < 100 nM | < 100 nM | < 100 nM
6 | CN[C@@H](C)C(=O)N[C@H](C(=O)N1CC[C@@H]2[C@H]1[C@@H](Oc1ccc(F)c(F)c1)CN2C1CCOCC1)C(C)(C)C [Example 15, N-{1-[6-(3,4-Difluoro-phenoxy)-4-(tetrahydro-pyran-4-yl)-hexahydro-pyrrolo[3,2-b]pyrrole-1-carbonyl]-2,2-dimethyl-propyl}-2-methylamino-propionamide] | < 100 nM | 100 to 1000 nM | < 100 nM
7 | CN[C@@H](C)C(=O)N[C@H](C(=O)N1CC[C@@H]2[C@H]1[C@@H](Oc1ccc(F)cc1)CN2S(C)(=O)=O)[C@@H](C)OC [Example 11, N-{1-[6-(4-Fluoro-phenoxy)-4-methanesulfonyl-hexahydro-pyrrolo[3,2-b]pyrrole-1-carbonyl]-2-methoxy-propyl}-2-methylamino-propionamide] | < 100 nM | < 100 nM | < 100 nM
8 | CNC(=O)N1C[C@H](Oc2ccc(F)c(F)c2)[C@@H]2[C@H]1CCN2C(=O)[C@@H](NC(=O)[C@H](C)NC)C(C)(C)C [Example 23, 3-(3,4-Difluoro-phenoxy)-4-[3,3-dimethyl-2-(2-methylamino-propionylamino)-butyryl]-hexahydro-pyrrolo[3,2-b]pyrrole-1-carboxylic acid methylamide] | < 100 nM | < 100 nM | < 100 nM
9 | CN[C@@H](C)C(=O)N[C@H](C(=O)N1CC[C@@H]2[C@H]1[C@@H](OCc1ccc(F)cc1)CN2C(=O)OC(C)(C)C)C(C)(C)C [Example 34, 4-[3,3-Dimethyl-2-(2-methylamino-propionylamino)-butyryl]-3-(4-fluoro-benzyloxy)-hexahydro-pyrrolo[3,2-b]pyrrole-1-carboxylic acid tert-butyl ester] | < 100 nM | < 100 nM | < 100 nM
10 | CN[C@@H](C)C(=O)N[C@H](C(=O)N1CC[C@@H]2[C@H]1[C@@H](Oc1ccc(F)c(F)c1)CN2S(C)(=O)=O)C(C)(C)C [Example 19, N-{1-[6-(3,4-Difluoro-phenoxy)-4-methanesulfonyl-hexahydro-pyrrolo[3,2-b]pyrrole-1-carbonyl]-2,2-dimethyl-propyl}-2-methylamino-propionamide] | < 100 nM | < 100 nM | < 100 nM
11 | CNC(=O)N1C[C@H](Oc2ccc(F)cc2)[C@@H]2[C@H]1CCN2C(=O)[C@@H](NC(=O)[C@H](C)NC)C(C)(C)C [Example 27, 4-[3,3-Dimethyl-2-(2-methylamino-propionylamino)-butyryl]-3-(4-fluoro-phenoxy)-hexahydro-pyrrolo[3,2-b]pyrrole-1-carboxylic acid methylamide] | < 100 nM | < 100 nM | < 100 nM
12 | CN[C@@H](C)C(=O)N[C@H](C(=O)N1CC[C@@H]2[C@H]1[C@@H](OCc1ccc(F)cc1)CN2C(=O)N(C)C)C(C)(C)C [Example 41, (3S,3aS,6aR)-4-((S)-3,3-dimethyl-2((S)-2-(methylamino)propanamido)butanoyl)-3-(4-fluorobenzyloxy)-N,N-dimethylhexahydropyrrolo[3,2-b]pyrrole-1(2H)-carboxamide] | < 100 nM | < 100 nM | < 100 nM
13 | CN[C@@H](C)C(=O)N[C@H](C(=O)N1CC[C@@H]2[C@H]1[C@@H](OC(=O)NC1CCCCC1)CN2C(=O)NC(C)C)C(C)(C)C [Example 57, Cyclohexyl-carbamic acid 4-[3,3-dimethyl-2-(2-methylamino-propionylamino)-butyryl]-1-isopropylcarbamoyl-octahydro-pyrrolo[3,2-b]pyrrol-3-yl ester] | < 100 nM | 100 to 1000 nM | < 100 nM
14 | CN[C@@H](C)C(=O)N[C@H](C(=O)N1CC[C@@H]2[C@H]1[C@@H](Oc1ccc(F)c(F)c1)CN2S(=O)(=O)CC(C)C)C(C)(C)C [Example 20, N-{1-[6-(3,4-Difluoro-phenoxy)-4-(2-methyl-propane-1-sulfonyl)-hexahydro-pyrrolo[3,2-b]pyrrole-1-carbonyl]-2,2-dimethyl-propyl}-2-methylamino-propionamide] | < 100 nM | < 100 nM | < 100 nM
15 | CN[C@@H](C)C(=O)N[C@H](C(=O)N1CC[C@@H]2[C@H]1[C@@H](Oc1ccc(F)cc1)CN2C(=O)NC(C)C)C1CCCCC1 [Example 28, 4-[2-Cyclohexyl-2-(2-methylamino-propionylamino)-acetyl]-3-(4-fluoro-phenoxy)-hexahydro-pyrrolo[3,2-b]pyrrole-1-carboxylic acid isopropylamide] | < 100 nM | < 100 nM | < 100 nM
16 | CN[C@@H](C)C(=O)N[C@H](C(=O)N1CC[C@@H]2[C@H]1[C@@H](OC(=O)NC(C)C)CN2C(=O)NC(C)C)C(C)(C)C [Example 54, Isopropyl-carbamic acid 4-[3,3-dimethyl-2-(2-methylamino-propionylamino)-butyryl]-1-isopropylcarbamoyl-octahydro-pyrrolo[3,2-b]pyrrol-3-yl ester] | < 100 nM | 1000 to 10000 nM | 1000 to 10000 nM
17 | CN[C@@H](C)C(=O)N[C@H](C(=O)N1CC[C@H]2NC[C@H](COc3ccc(F)c(F)c3)[C@H]21)C(C)(C)C [Example 64, N-{1-[6-(3,4-Difluoro-phenoxymethyl)-hexahydro-pyrrolo[3,2-b]pyrrole-1-carbonyl]-2,2-dimethyl-propyl}-2-methylamino propionamide] | < 100 nM | < 100 nM | < 100 nM
18 | CN[C@@H](C)C(=O)N[C@H](C(=O)N1CC[C@@H]2[C@H]1[C@@H](COc1ccc(F)c(F)c1)CN2C(=O)N(C)C)C(C)(C)C [Example 68, 3-(3,4-Difluoro-phenoxymethyl)-4-[3.3-dimethyl-2-(2-methylaminopropionylamino)-butyryl]-hexahydro-pyrrolo[3,2-b]pyrrole-1-carboxylic acid dimethylamide] | < 100 nM | < 100 nM | < 100 nM
